Results: patent US20240245711A1, “A 19-NOR C3,3-DISUBSTITUTED C21-N-PYRAZOLYL STEROID FOR THE TREATMENT OF MAJOR DEPRESSIVE DISORDER” (Sage Therapeutics, Inc., priority 2021, published 2024)
“And” between values parts separate entries of the source, which are not always exact repeats. Equal values may be shown once.

Tested on: adult subjects with Major Depressive Disorder
Test: Phase 3 open-label 1-year study: HAM-D total score, response and remission
Assay type: in vivo, human
Settings: for HAM-D Total Score, Mean Percent Change from Period-Specific Baseline / HAM-D Total Score, Mean Change from Period-Specific Baseline: Low Dose Cohort (FAS); for HAM-D Remission / HAM-D Response / HAM-D total score, Mean % CFB ± SD / HAM-D total score, Mean CFB ± SD: Study Period 1, safety set, 30 mg Cohort (N = 725)
Description: Secondary Objective: To assess the need for re-treatment with Compound (1) following initial treatment in adults with MDD currently experiencing an MDE over a 1-year period, and to assess the response of initial treatment and re-treatment(s) with Compound (1) following an initial 2-week treatment period in adults with MDD currently experiencing an MDE over a 1-year period.
Secondary Endpoints: The need for re-treatment with Compound (1) as assessed by: time to first re-treatment (Kaplan-Meier curves), number of subjects achieving the requirements for re-treatment, number of re-treatment cycles for each subject, the response of initial treatment and/or re-treatment as assessed by: change from baseline in the 17-item Hamilton Rating Scale for Depression (HAM-D) total score at the end of each 14-day treatment (initial and/or re-treatment) period, HAM-D response at the end of each 14-day treatment (initial and/or re-treatment) period, defined as a ≥50% reduction in HAM-D score from baseline, HAM-D remission at the end of each 14-day treatment (initial and/or re-treatment) period, defined as HAM-D total score≤7, Clinical Global Impression-Improvement (CGI-I) response, defined as “much improved” or “very much improved”, at the end of each 14-day treatment (initial and/or re-treatment) period, change from baseline in Clinical Global Impression-Severity (CGI-S) score at the end of each 14-day treatment (initial and/or re-treatment) period.
Study Population: Subjects were 18-75 years old, diagnosed with major depressive disorder (MDD) with a MADRS total score of ≥28 and a HAM-D total score of ≥20 at Screening and Day 1 (prior to dosing).
Treatment Groups: The 30 mg and 50 mg dose groups were separated by time of enrollment. The study is comprised of two cohorts: one with Compound (1) 30 mg as a starting dose (30 mg Cohort: n=725), an initial cohort with Compound (1) 50 mg as a starting dose (50 mg Cohort: n=199). A patient receiving Compound (1) 30 mg could be dose reduced to 20 mg and patients receiving Compound (1) 50 mg could be dose reduced to 40 mg (based on tolerability). In all cohorts, Compound (1) is self-administered by patients as an oral therapy once nightly with food for 14 days.
Eligible subjects were given Compound (1)—to be taken at home in the evening with meal.
The cohorts pertaining to the different doses that the subjects received were defined as following: • 50 mg cohort: This cohort includes subjects who have initiated treatment with 50 mg and received re-treatment with 50 mg only. • 30 mg cohort: This cohort includes subjects who have initiated treatment with 30 mg regardless of the dose they have received in re-treatments. • Low dose cohort: This cohort includes subjects who have initiated treatment with 30 mg and received re-treatment with 30 mg only. • Dose switch cohort: This cohort includes subjects who have received initial treatment with 30 mg and at least one subsequent re-treatment with 50 mg. • Study Period X: starts on the date of the first dose of Compound (1) in cycle X and goes up to one day prior to the first dose of the next cycle. In some embodiments, X is any number from 1 to 5. • Treatment Period X: starts on the date of the first dose of Compound (1) in cycle X and goes up to one day after the last dose in cycle X. In some embodiments, X is any number from 1 to 5. • Treatment Cycle X: starts on the date of the first dose of Compound (1) in cycle X and goes up to 14 days after the last dose in cycle X. The treatment cycles may be denoted as C1-C5. • Observation period X: starts the day after Treatment Cycle X ends and goes up to one day prior to the start of next treatment cycle. In some embodiments, X is any number from 1 to 5.
Analysis Sets: The safety set was defined as all subjects who were administered study drug. The period-specific safety set includes subjects in the safety set who were administered study drug in the corresponding treatment cycle. […]

[1] = subjects dosed in Cycle 4 (43), Cycle 1, Day 28
[2] = subjects dosed in Cycle 4 (43), Cycle 2, Day 15
[3] = subjects dosed in Cycle 4 (43), Cycle 2, Day 28
[4] = subjects dosed in Cycle 4 (43), Cycle 3, Day 15
[5] = subjects dosed in Cycle 4 (43), Cycle 3, Day 28
[6] = subjects dosed in Cycle 4 (43), Cycle 4, Day 15
[7] = subjects dosed in Cycle 4 (43), Cycle 4, Day 28
[8] = subjects dosed in Cycle 5 (20), Cycle 1, Day 15
[9] = subjects dosed in Cycle 5 (20), Cycle 1, Day 28
[10] = subjects dosed in Cycle 5 (20), Cycle 2, Day 15
[11] = subjects dosed in Cycle 5 (20), Cycle 2, Day 28
[12] = subjects dosed in Cycle 5 (20), Cycle 3, Day 15
[13] = subjects dosed in Cycle 5 (20), Cycle 3, Day 28
[14] = subjects dosed in Cycle 5 (20), Cycle 4, Day 15
[15] = subjects dosed in Cycle 5 (20), Cycle 4, Day 28
[16] = subjects dosed in Cycle 5 (20), Cycle 5, Day 28

With `C[C@@]1(O)CC[C@H]2[C@H](CC[C@@H]3[C@@H]2CC[C@]2(C)[C@@H](C(=O)Cn4cc(C#N)cn4)CC[C@@H]32)C1` [Compound (1), 1-(2-((3R,5R,8R,9R,10S,13S,14S,17S)-3-hydroxy-3,13-dimethylhexadecahydro-1H-cyclopenta[a]phenanthren-17-yl)-2-oxoethyl)-1H-pyrazole-4-carbonitrile] the “HAM-D Total Score, Mean Percent Change from Period-Specific Baseline” value (“HAM-D Total Score, Mean Percent Change” for short) (subjects dosed in Cycle 4 (43), Cycle 1, Day 15) was −68.2, the “HAM-D Total Score, Mean Change from Period-Specific Baseline” value (“HAM-D Total Score, Mean Change” for short) [1] was −13.0 and the “HAM-D Total Score, Mean Percent Change” value [1] was −52.0. For the same compound, the “HAM-D Total Score, Mean Change” value [2] was −12.1, the “HAM-D Total Score, Mean Percent Change” value [2] was −49.6 and the “HAM-D Total Score, Mean Change” value [3] was −10.4. The “HAM-D Total Score, Mean Percent Change” value [3] was −42.4, the “HAM-D Total Score, Mean Change” value [4] was −12.7 and the “HAM-D Total Score, Mean Percent Change” value [4] was −54.1. The “HAM-D Total Score, Mean Change” value [5] was −11.1, the “HAM-D Total Score, Mean Percent Change” value [5] was −46.9 and the “HAM-D Total Score, Mean Change” value [6] was −11.7. The “HAM-D Total Score, Mean Percent Change” value [6] was −50.0, the “HAM-D Total Score, Mean Change” value [7] was −9.9 and the “HAM-D Total Score, Mean Percent Change” value [7] was −41.9. The “HAM-D Total Score, Mean Change” value [8] was −16.5, the “HAM-D Total Score, Mean Percent Change” value [8] was −66.9 and the “HAM-D Total Score, Mean Change” value [9] was −11.3. The “HAM-D Total Score, Mean Percent Change” value [9] was −45.7, the “HAM-D Total Score, Mean Change” value [10] was −11.1 and the “HAM-D Total Score, Mean Percent Change” value [10] was −45.1. The “HAM-D Total Score, Mean Change” value [11] was −9.2, the “HAM-D Total Score, Mean Percent Change” value [11] was −37.8 and the “HAM-D Total Score, Mean Change” value [12] was −11.9. For the same compound, the “HAM-D Total Score, Mean Percent Change” value [12] was −51.5, the “HAM-D Total Score, Mean Change” value [13] was −10.7 and the “HAM-D Total Score, Mean Percent Change” value [13] was −46.1. The “HAM-D Total Score, Mean Change” value [14] was −11.6, the “HAM-D Total Score, Mean Percent Change” value [14] was −48.9 and the “HAM-D Total Score, Mean Change” value [15] was −7.7. The “HAM-D Total Score, Mean Percent Change” value [15] was −32.6, the “HAM-D Total Score, Mean Change” value (subjects dosed in Cycle 5 (20), Cycle 5, Day 15) was 17, −11.6/— and the “HAM-D Total Score, Mean Change” value [16] was −7.1. For the same compound, the “HAM-D Total Score, Mean Percent Change” value [16] was −30.6, the “Withdrawn in Treatment Cycle 1: Exit for non-response, n (%)” value (Low Dose Cohort (n = 645)) was 146 (22.6%) and the “HAM-D Remission” value (Day 8) was “(17.8%)”. For the same compound, the “HAM-D Response” value (Day 8) was 295/704 (41.9%), the “HAM-D total score, Mean % CFB ± SD” value (Day 8) was −42.9 ± 25.68% and the “HAM-D total score, Mean CFB ± SD” value (Day 8) was −10.9 ± 6.75. For the same compound, the “HAM-D total score, Mean % CFB ± SD” value (Day 15) was −60.0 ± 25.61%, the “HAM-D total score, Mean CFB ± SD” value (Day 15) was −15.2±7.1 and −15.2 ± 7.07 and the “HAM-D Remission” value (Day 28) was “(32.6%)”. The “HAM-D Response” value (Day 28) was 372/681 (54.6%), the “HAM-D total score, Mean % CFB ± SD” value (Day 28) was −51.9 ± 29.96% and the “HAM-D total score, Mean CFB ± SD” value (Day 28) was −13.3 ± 8.07. The “HAM-D Remission” value (Day 70) was “(30.0%)”, the “HAM-D Response” value (Day 70) was 193/384 (50.3%) and the “HAM-D total score, Mean % CFB ± SD” value (Day 70) was −46.6 ± 34.25%. The “HAM-D total score, Mean CFB ± SD” value (Day 70) was −12.1 ± 9.12 and the “HAM-D Remission” value (Day 126) was “(47.3%)”.
